Test results: article PMC11352961, “Peptide dendrimers transfecting CRISPR/Cas9 plasmid DNA: optimization and mechanism” (RSC Chemical Biology, 2024)
Bridge positions count the residues as written; N and C are the ends. Side chains are listed from the residue outwards. Peptide text beside a SMILES is read from it. I, II: the chains in the order shown. * marks the point of attachment. Stearoyl = CCCCCCCCCCCCCCCCCC(=O)*; Palmitoyl = CCCCCCCCCCCCCCCC(=O)*

Legend:
[1] = system: HEK293 cells; test: Cell viability by PrestoBlue assay after transfection, HEK cells; format: cell-based; conditions: 4 h
[2] = system: HeLa cells; test: Cell viability by PrestoBlue assay after transfection, HeLa cells; format: cell-based; conditions: 4 h

| Compound | % viability HEK cells [1] [%] | % viability HeLa cells [2] [%] |
| --- | --- | --- |
| CC(C)C[C@H](NC(=O)[C@H](CCCCN)NC(=O)[C@H](CCCCNC(=O)[C@H](CC(C)C)NC(=O)[C@H](CCCCN)NC(=O)[C@H](CCCCNC(=O)[C@H](CC(C)C)NC(=O)[C@@H](N)CCCCN)NC(=O)[C@H](CC(C)C)NC(=O)[C@@H](N)CCCCN)NC(=O)[C@H](CC(C)C)NC(=O)[C@H](CCCCN)NC(=O)[C@H](CCCCNC(=O)[C@H](CC(C)C)NC(=O)[C@@H](N)CCCCN)NC(=O)[C@H](CC(C)C)NC(=O)[C@@H](N)CCCCN)C(=O)NCCCC[C@H](NC(=O)[C@H](CC(C)C)NC(=O)[C@H](CCCCN)NC(=O)[C@H](CCCCNC(=O)[C@H](CC(C)C)NC(=O)[C@H](CCCCN)NC(=O)[C@H](CCCCNC(=O)[C@H](CC(C)C)NC(=O)[C@@H](N)CCCCN)NC(=O)[C@H](CC(C)C)NC(=O)[C@@H](N)CCCCN)NC(=O)[C@H](CC(C)C)NC(=O)[C@H](CCCCN)NC(=O)[C@H](CCCCNC(=O)[C@H](CC(C)C)NC(=O)[C@@H](N)CCCCN)NC(=O)[C@H](CC(C)C)NC(=O)[C@@H](N)CCCCN)C(=O)NCC(=O)N[C@@H](CO)C(=O)N[C@@H](CS)C(N)=O [G123KL, reference compound] (I: H-KLK([Leu-Lys])KLKKLKGSC-NH2 / II: H-KLK([Leu-Lys])KLKKL / III: H-KLK([Leu-Lys])KL / IV: H-KLK([Leu-Lys])KL; amide I:6-IV:C, I:9-II:C, II:6-III:C) | 52 ± 9 |  |
| CCCCCCCCCCCCCCCCCC(=O)NCCCC[C@H](NC(=O)[C@H](CCCCNC(=O)CCCCCCCCCCCCCCCCC)NC(=O)[C@H](CCCCNC(=O)[C@H](CC(C)C)NC(=O)[C@H](CCCCN)NC(=O)[C@H](CCCCNC(=O)[C@H](CC(C)C)NC(=O)[C@H](CCCCN)NC(=O)[C@H](CCCCNC(=O)[C@H](CC(C)C)NC(=O)[C@@H](N)CCCCN)NC(=O)[C@H](CC(C)C)NC(=O)[C@@H](N)CCCCN)NC(=O)[C@H](CC(C)C)NC(=O)[C@H](CCCCN)NC(=O)[C@H](CCCCNC(=O)[C@H](CC(C)C)NC(=O)[C@@H](N)CCCCN)NC(=O)[C@H](CC(C)C)NC(=O)[C@@H](N)CCCCN)NC(=O)[C@H](CC(C)C)NC(=O)[C@H](CCCCN)NC(=O)[C@H](CCCCNC(=O)[C@H](CC(C)C)NC(=O)[C@H](CCCCN)NC(=O)[C@H](CCCCNC(=O)[C@H](CC(C)C)NC(=O)[C@@H](N)CCCCN)NC(=O)[C@H](CC(C)C)NC(=O)[C@@H](N)CCCCN)NC(=O)[C@H](CC(C)C)NC(=O)[C@H](CCCCN)NC(=O)[C@H](CCCCNC(=O)[C@H](CC(C)C)NC(=O)[C@@H](N)CCCCN)NC(=O)[C@H](CC(C)C)NC(=O)[C@@H](N)CCCCN)C(N)=O [Z2] (I: H-KLK([Leu-Lys])KLKKLKK(Stearoyl)K(Stearoyl)-NH2 / II: H-KLK([Leu-Lys])KLKKL / III: H-KLK([Leu-Lys])KL / IV: H-KLK([Leu-Lys])KL; amide I:6-IV:C, I:9-II:C, II:6-III:C) | 79 ± 11 | 47 ± 3 |
| CC(C)C[C@H](NC(=O)[C@H](CC(C)C)NC(=O)[C@H](CC(C)C)NC(=O)[C@H](CC(C)C)NC(=O)[C@H](CC(C)C)NC(=O)[C@H](CCCCNC(=O)[C@H](CC(C)C)NC(=O)[C@H](CCCCN)NC(=O)[C@H](CCCCNC(=O)[C@H](CC(C)C)NC(=O)[C@H](CCCCN)NC(=O)[C@H](CCCCNC(=O)[C@H](CC(C)C)NC(=O)[C@@H](N)CCCCN)NC(=O)[C@H](CC(C)C)NC(=O)[C@@H](N)CCCCN)NC(=O)[C@H](CC(C)C)NC(=O)[C@H](CCCCN)NC(=O)[C@H](CCCCNC(=O)[C@H](CC(C)C)NC(=O)[C@@H](N)CCCCN)NC(=O)[C@H](CC(C)C)NC(=O)[C@@H](N)CCCCN)NC(=O)[C@H](CC(C)C)NC(=O)[C@H](CCCCN)NC(=O)[C@H](CCCCNC(=O)[C@H](CC(C)C)NC(=O)[C@H](CCCCN)NC(=O)[C@H](CCCCNC(=O)[C@H](CC(C)C)NC(=O)[C@@H](N)CCCCN)NC(=O)[C@H](CC(C)C)NC(=O)[C@@H](N)CCCCN)NC(=O)[C@H](CC(C)C)NC(=O)[C@H](CCCCN)NC(=O)[C@H](CCCCNC(=O)[C@H](CC(C)C)NC(=O)[C@@H](N)CCCCN)NC(=O)[C@H](CC(C)C)NC(=O)[C@@H](N)CCCCN)C(N)=O [Z3] (I: H-KLK([Leu-Lys])KLKKLKLLLLL-NH2 / II: H-KLK([Leu-Lys])KLKKL / III: H-KLK([Leu-Lys])KL / IV: H-KLK([Leu-Lys])KL; amide I:6-IV:C, I:9-II:C, II:6-III:C) | 76 ± 7 | 51 ± 5 |
| CCCCCCCCCCCCCCCC(=O)NCCCC[C@H](NC(=O)[C@H](CCCCNC(=O)[C@H](CC(C)C)NC(=O)[C@H](CCCCN)NC(=O)[C@H](CCCCNC(=O)[C@H](CC(C)C)NC(=O)[C@H](CCCCN)NC(=O)[C@H](CCCCNC(=O)[C@H](CC(C)C)NC(=O)[C@@H](N)CCCCN)NC(=O)[C@H](CC(C)C)NC(=O)[C@@H](N)CCCCN)NC(=O)[C@H](CC(C)C)NC(=O)[C@H](CCCCN)NC(=O)[C@H](CCCCNC(=O)[C@H](CC(C)C)NC(=O)[C@@H](N)CCCCN)NC(=O)[C@H](CC(C)C)NC(=O)[C@@H](N)CCCCN)NC(=O)[C@H](CC(C)C)NC(=O)[C@H](CCCCN)NC(=O)[C@H](CCCCNC(=O)[C@H](CC(C)C)NC(=O)[C@H](CCCCN)NC(=O)[C@H](CCCCNC(=O)[C@H](CC(C)C)NC(=O)[C@@H](N)CCCCN)NC(=O)[C@H](CC(C)C)NC(=O)[C@@H](N)CCCCN)NC(=O)[C@H](CC(C)C)NC(=O)[C@H](CCCCN)NC(=O)[C@H](CCCCNC(=O)[C@H](CC(C)C)NC(=O)[C@@H](N)CCCCN)NC(=O)[C@H](CC(C)C)NC(=O)[C@@H](N)CCCCN)C(N)=O [Z4] (I: H-KLK([Leu-Lys])KLKKLKK(Palmitoyl)-NH2 / II: H-KLK([Leu-Lys])KLKKL / III: H-KLK([Leu-Lys])KL / IV: H-KLK([Leu-Lys])KL; amide I:6-IV:C, I:9-II:C, II:6-III:C) | 89 ± 11 | 88 ± 11 |
| CCCCCCCCCCCCCCCCCC(=O)NCCCC[C@H](NC(=O)[C@H](CCCCNC(=O)[C@H](CC(C)C)NC(=O)[C@H](CCCCN)NC(=O)[C@H](CCCCNC(=O)[C@H](CC(C)C)NC(=O)[C@H](CCCCN)NC(=O)[C@H](CCCCNC(=O)[C@H](CC(C)C)NC(=O)[C@@H](N)CCCCN)NC(=O)[C@H](CC(C)C)NC(=O)[C@@H](N)CCCCN)NC(=O)[C@H](CC(C)C)NC(=O)[C@H](CCCCN)NC(=O)[C@H](CCCCNC(=O)[C@H](CC(C)C)NC(=O)[C@@H](N)CCCCN)NC(=O)[C@H](CC(C)C)NC(=O)[C@@H](N)CCCCN)NC(=O)[C@H](CC(C)C)NC(=O)[C@H](CCCCN)NC(=O)[C@H](CCCCNC(=O)[C@H](CC(C)C)NC(=O)[C@H](CCCCN)NC(=O)[C@H](CCCCNC(=O)[C@H](CC(C)C)NC(=O)[C@@H](N)CCCCN)NC(=O)[C@H](CC(C)C)NC(=O)[C@@H](N)CCCCN)NC(=O)[C@H](CC(C)C)NC(=O)[C@H](CCCCN)NC(=O)[C@H](CCCCNC(=O)[C@H](CC(C)C)NC(=O)[C@@H](N)CCCCN)NC(=O)[C@H](CC(C)C)NC(=O)[C@@H](N)CCCCN)C(=O)N[C@@H](CS)C(N)=O [Z12] (I: H-KLK([Leu-Lys])KLKKLKK(Stearoyl)C-NH2 / II: H-KLK([Leu-Lys])KLKKL / III: H-KLK([Leu-Lys])KL / IV: H-KLK([Leu-Lys])KL; amide I:6-IV:C, I:9-II:C, II:6-III:C) | 80 ± 5 | 112 ± 10 |
